From patent US9125913B2, “Bcl-2-selective apoptosis-inducing agents for the treatment of cancer and immune diseases” (AbbVie Inc., priority 2008, dated 2015)

Assays:
FL5.12/Bcl-2 cells = assay: FL5.12/Bcl-2 cell viability assay; assay type: cell-based, murine; conditions: ratio of canine platelet EC50 to FL5.12/Bcl-2 EC50
From the text: FL5.12 is an IL-3 dependent prolymphocytic murine cell line that undergoes apoptosis upon IL-3 withdrawal as a result of the upregulation of pro-apoptotic Bcl-2 proteins such as Bim and Puma. Stable overexpression of anti-apoptotic Bcl-2 protein (FL5.12/Bcl-2) protects against apoptosis induced by IL-3 withdrawal by sequestration of Bim and Puma. […] The ability of compounds to kill FL5.12/Bcl-2 cells upon IL-3 withdrawal is a direct measure of the compounds' ability to inhibit anti-apoptotic Bcl-2 protein function.
Wild type FL5.12/Bcl-2 overexpressing stable transfectants were cultured in RPMI-1640 supplemented with 2 mM L-glutamine, 10% FBS, 1 mM sodium pyruvate, 2 mM HEPES, 1% penicillin/streptomycin (Invitrogen), 57 μM β-ME, and 10% WEHI-3B conditioned medium (source of IL-3) and maintained at 37° C. containing 5% CO2. 1×10^6 cells/ml were washed 1×PBS and resuspended in medium not supplemented with 10% WEHI-3B for 48 hrs prior to cytotoxicity assays. Cells were then treated for an additional 24 hrs in the presence of various concentrations of the indicated compounds. Cell viability was assessed by CellTitre Glo assay (Promega Corp.) according to the manufacturer's recommendations.

GST-Bcl-2 = assay: TR-FRET binding assay, Bcl-2; conditions: TR-FRET Ki values
Outline: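 Compounds serially diluted in DMSO from 50 μM (2× starting concentration, 10% DMSO), mixed with GST-tagged protein, F-Bak peptide probe and Tb-labeled antibody, incubated 3 h at room temperature.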

Row | Compound | Selectivity Ratio (Platelet EC50/FL5.12/Bcl-2 EC50) (FL5.12/Bcl-2 cells) | Binding selectivity ratio (Bcl-XL Ki/Bcl-2 Ki) (GST-Bcl-2)
1 | CC1(C)CCC(CN2CCN(c3ccc(C(=O)NS(=O)(=O)c4ccc(NCCCN5CCOCC5)c([N+](=O)[O-])c4)c(Oc4ccccc4)c3)CC2)=C(c2ccc(Cl)cc2)C1 [Example 18, 4-(4-{[2-(4-chlorophenyl)-4,4-dimethylcyclohex-1-en-1-yl]methyl}piperazin-1-yl)-N-({4-[(3-morpholin-4-ylpropyl)amino]-3-nitrophenyl}sulfonyl)-2-phenoxybenzamide] | 241 | 34.2
2 | CN1CCC(Nc2ccc(S(=O)(=O)NC(=O)c3ccc(N4CCN(CC5=C(c6ccc(Cl)cc6)CC(C)(C)CC5)CC4)cc3Oc3ccc4[nH]ncc4c3)cc2[N+](=O)[O-])CC1 [Example 21, 4-(4-{[2-(4-chlorophenyl)-4,4-dimethylcyclohex-1-en-1-yl]methyl}piperazin-1-yl)-2-(1H-indazol-5-yloxy)-N-({4-[(1-methylpiperidin-4-yl)amino]-3-nitrophenyl}sulfonyl)benzamide] | >49 | 35.1
3 | CC1(C)CCC(CN2CCN(c3ccc(C(=O)NS(=O)(=O)c4ccc(NCCCN5CCOCC5)c([N+](=O)[O-])c4)c(Oc4ccc5c(c4)CCCN5)c3)CC2)=C(c2ccc(Cl)cc2)C1 [Example 22, 4-(4-{[2-(4-chlorophenyl)-4,4-dimethylcyclohex-1-en-1-yl]methyl}piperazin-1-yl)-N-({4-[(3-morpholin-4-ylpropyl)amino]-3-nitrophenyl}sulfonyl)-2-(1,2,3,4-tetrahydroquinolin-6-yloxy)benzamide] | >61 | 20.2
4 | CN1CCC(Nc2ccc(S(=O)(=O)NC(=O)c3ccc(N4CCN(CC5=C(c6ccc(Cl)cc6)CC(C)(C)CC5)CC4)cc3Oc3ccc4c(c3)CCCN4)cc2[N+](=O)[O-])CC1 [Example 23, 4-(4-{[2-(4-chlorophenyl)-4,4-dimethylcyclohex-1-en-1-yl]methyl}piperazin-1-yl)-N-({4-[(1-methylpiperidin-4-yl)amino]-3-nitrophenyl}sulfonyl)-2-(1,2,3,4-tetrahydroquinolin-6-yloxy)benzamide] | >35 | 25.3
5 | O=C(NS(=O)(=O)c1ccc(NCC2CCOCC2)c([N+](=O)[O-])c1)c1ccc(N2CCN(Cc3cc(CN4CCCC4)ccc3-c3ccc(Cl)cc3)CC2)cc1Oc1cccc2[nH]ccc12 [Example 24, 4-(4-{[4′-chloro-4-(pyrrolidin-1-ylmethyl)-1,1′-biphenyl-2-yl]methyl}piperazin-1-yl)-2-(1H-indol-4-yloxy)-N-({3-nitro-4-[(tetrahydro-2H-pyran-4-ylmethyl)amino]phenyl}sulfonyl)benzamide] | >906 | >3402.1
6 | O=C(NS(=O)(=O)c1ccc(NCC2CCOCC2)c([N+](=O)[O-])c1)c1ccc(N2CCN(Cc3cc(CCN4CCCC4)ccc3-c3ccc(Cl)cc3)CC2)cc1Oc1cccc2[nH]ccc12 [Example 25, 4-(4-{[4′-chloro-4-(2-pyrrolidin-1-ylethyl)-1,1′-biphenyl-2-yl]methyl}piperazin-1-yl)-2-(1H-indol-4-yloxy)-N-({3-nitro-4-[(tetrahydro-2H-pyran-4-ylmethyl)amino]phenyl}sulfonyl)benzamide] | >1020 | 4103.8
7 | CC1(C)CCC(CN2CCN(c3ccc(C(=O)NS(=O)(=O)c4ccc(NC5CCN(C6CCCC6)CC5)c([N+](=O)[O-])c4)c(Oc4ccc5[nH]ccc5c4)c3)CC2)=C(c2ccc(Cl)cc2)C1 [Example 26, 4-(4-{[2-(4-chlorophenyl)-4,4-dimethylcyclohex-1-en-1-yl]methyl}piperazin-1-yl)-N-({4-[(1-cyclopentylpiperidin-4-yl)amino]-3-nitrophenyl}sulfonyl)-2-(1H-indol-5-yloxy)benzamide] | >1429 | >4714.3
8 | CN(C)CCCOc1ccc(S(=O)(=O)NC(=O)c2ccc(N3CCN(CC4=C(c5ccc(Cl)cc5)CC(C)(C)CC4)CC3)cc2Oc2cccc3[nH]ccc23)cc1[N+](=O)[O-] [Example 106, 4-(4-{[2-(4-chlorophenyl)-4,4-dimethylcyclohex-1-en-1-yl]methyl}piperazin-1-yl)-N-({4-[3-(dimethylamino)propoxy]-3-nitrophenyl}sulfonyl)-2-(1H-indol-4-yloxy)benzamide] | 1657 | 
9 | O=C(NS(=O)(=O)c1ccc(NCCn2ccnn2)c([N+](=O)[O-])c1)c1ccc(N2CCN(Cc3ccccc3-c3ccc(Cl)cc3)CC2)cc1Oc1ccccc1 [Example 164, 4-{4-[(4′-chloro-1,1′-biphenyl-2-yl)methyl]piperazin-1-yl}-N-[(3-nitro-4-{[2-(1H-1,2,3-triazol-1-yl)ethyl]amino}phenyl)sulfonyl]-2-phenoxybenzamide] |  | 143.3
10 | O=C(NS(=O)(=O)c1ccc(NCCn2nccn2)c([N+](=O)[O-])c1)c1ccc(N2CCN(Cc3ccccc3-c3ccc(Cl)cc3)CC2)cc1Oc1ccccc1 [Example 165, 4-{4-[(4′-chloro-1,1′-biphenyl-2-yl)methyl]piperazin-1-yl}-N-[(3-nitro-4-{[2-(2H-1,2,3-triazol-2-yl)ethyl]amino}phenyl)sulfonyl]-2-phenoxybenzamide] |  | 44.5
11 | O=C(NS(=O)(=O)c1ccc(NCCc2ccncc2)c([N+](=O)[O-])c1)c1ccc(N2CCN(Cc3ccccc3-c3ccc(Cl)cc3)CC2)cc1Oc1ccccc1 [Example 169, 4-{4-[(4′-chloro-1,1′-biphenyl-2-yl)methyl]piperazin-1-yl}-N-({3-nitro-4-[(2-pyridin-4-ylethyl)amino]phenyl}sulfonyl)-2-phenoxybenzamide] |  | 91.4
12 | CC(c1ccccc1-c1ccc(Cl)cc1)N1CCN(c2ccc(C(=O)NS(=O)(=O)c3ccc(NCC4CCOCC4)c([N+](=O)[O-])c3)c(Oc3cccc4[nH]ccc34)c2)CC1 (stereo not drawn) [Example 175, 4-{4-[1-(4′-chloro-1,1′-biphenyl-2-yl)ethyl]piperazin-1-yl}-2-(1H-indol-4-yloxy)-N-({3-nitro-4-[(tetrahydro-2H-pyran-4-ylmethyl)amino]phenyl}sulfonyl)benzamide] |  | >6600
13 | CC1(C)CCC(CN2CCN(c3ccc(C(=O)NS(=O)(=O)c4ccc(NCC5(N)CCOCC5)c([N+](=O)[O-])c4)c(Oc4cccc5[nH]ccc45)c3)CC2)=C(c2ccc(Cl)cc2)C1 [Example 176, N-[(4-{[(4-aminotetrahydro-2H-pyran-4-yl)methyl]amino}-3-nitrophenyl)sulfonyl]-4-(4-{[2-(4-chlorophenyl)-4,4-dimethylcyclohex-1-en-1-yl]methyl}piperazin-1-yl)-2-(1H-indol-4-yloxy)benzamide] |  | 177.8
14 | CC1(C)CCC(CN2CCN(c3ccc(C(=O)NS(=O)(=O)c4ccc(NCC5CCOCC5)c([N+](=O)[O-])c4)c(Oc4ccc5[nH]ccc5c4)c3)CC2)=C(c2ccc(Cl)cc2)C1 [Example 177, 4-(4-{[2-(4-chlorophenyl)-4,4-dimethylcyclohex-1-en-1-yl]methyl}piperazin-1-yl)-2-(1H-indol-5-yloxy)-N-({3-nitro-4-[(tetrahydro-2H-pyran-4-ylmethyl)amino]phenyl}sulfonyl)benzamide] |  | 799.7
15 | CC1(C)CCC(CN2CCN(c3ccc(C(=O)NS(=O)(=O)c4ccc(N[C@H]5CC[C@H](N6CCOCC6)CC5)c([N+](=O)[O-])c4)c(Oc4ccc5[nH]ccc5c4)c3)CC2)=C(c2ccc(Cl)cc2)C1 [Example 178, Trans-4-(4-{[2-(4-chlorophenyl)-4,4-dimethylcyclohex-1-en-1-yl]methyl}piperazin-1-yl)-2-(1H-indol-5-yloxy)-N-({4-[(4-morpholin-4-ylcyclohexyl)amino]-3-nitrophenyl}sulfonyl)benzamide] |  | >2915.8
16 | COCCNc1ccc(S(=O)(=O)NC(=O)c2ccc(N3CCN(CC4=C(c5ccc(Cl)cc5)CC(C)(C)CC4)CC3)cc2Oc2ccc3[nH]ccc3c2)cc1[N+](=O)[O-] [Example 179, 4-(4-{[2-(4-chlorophenyl)-4,4-dimethylcyclohex-1-en-1-yl]methyl}piperazin-1-yl)-2-(1H-indol-5-yloxy)-N-({4-[(2-methoxyethyl)amino]-3-nitrophenyl}sulfonyl)benzamide] |  | >3642.4
17 | CN(C)CC(=O)N1CCO[C@@H](COc2ncc(S(=O)(=O)NC(=O)c3ccc(N4CCN(CC5=C(c6ccc(Cl)cc6)CC(C)(C)CC5)CC4)cc3Oc3cccc4[nH]ncc34)cc2Cl)C1 [compound 426, N-[(5-chloro-6-{[(2R)-4-(N,N-dimethylglycyl)morpholin-2-yl]methoxy}pyridin-3-yl)sulfonyl]-4-(4-{[2-(4-chlorophenyl)-4,4-dimethylcyclohex-1-en-1-yl]methyl}piperazin-1-yl)-2-(1H-indazol-4-yloxy)benzamide] |  | 604.2
